The test system of one assay is p38α. The assay can be described thus: Phosphorylation of immunoprecipitated myc-p38α in BPH-1 cells. Format: cell-based, human. To be noted: for activation (phosphorylation) of myc-p38α / effect of PTX pre-exposure on p38α activation: BPH-1 cells; for activation (phosphorylation) of myc-p38α: 100 nM; for effect of PTX pre-exposure on p38α activation: PTX 16 h 200 ng/ml. On the procedure:
(§1) The activation of two other forms of mitogen-activated protein kinase (MAPK) was studied in JEG-3 and BPH-1 cells by overexpressing myc-tagged constructs of JNK2 or p38α. Immunoprecipitation of these constructs after GnRHR-ligand stimulation of either cell line allowed the degree of kinase activation to be assessed using antisera specific for the active, phosphorylated, form of the kinase. […] In both panel a and b, the dose of GnRH I employed was 100 nM. The respective histograms in each panel represent the mean±s.e. mean of three experimental replicate time courses.
The histogram below depicts the mean±s.e. mean of three experimental replicates of the above western blot. […] The histograin below depicts the mean±s.e. mean of three experimental replicates of the above western blot.
(§2) Stimulation of JNK in JEG-3 cells and p38 in BPH-1 cells and its sensitivity to pre-exposure to PTX was assessed by measuring the degree of activating phosphorylation of immunoprecipitated myc-JNK2 or myc-p38α. […] The histograms in panels b and c depict the mean±s.e. mean of three experimental replicates of the above western blot (panel a) experiments. Panel d depicts an identical experiment to that in panel a except that it is the phosphorylation status of immunoprecipitated myc-p38α that is being measured. […] The histograms in panels e and f depict the mean±s.e. mean of three experimental replicates of the above western blot (panel d) experiments.
To further investigate the validity of the observed SAPK activation we transfected the tumour cell lines with myc-tagged JNK2 or p38α MAPK isoforms, stimulated the cells with GnRH and then immunoprecipitated with anti-myc sera and western blotted the immunoprecipitates for total JNK/p38 protein and active JNK/p38.

A further assay relates to ERK1/2. Put plainly: ERK1/2 phosphorylation immunoblot in JEG-3 cells. Format: cell-based, human. The note with it: for extent of ERK1/2 phosphorylation (activation): 100 nM, 10 minutes. On the technique in general: Immunoblotting shows a protein as a band on a membrane.
The next assay deals with JNK2. Put plainly: Phosphorylation of immunoprecipitated myc-JNK2 in JEG-3 cells. Format: cell-based, human. To be noted: for activation (phosphorylation) of myc-JNK2: 100 nM; for effect of PTX pre-incubation on JNK phosphorylation: ligand 100 nM, PTX 16 h 200 ng/ml. On the procedure:
as §1
The inset immunoblots depict the phosphorylation status of the immunoprecipitated JNK2 increasing while the level of total unphosphorylated protein (detected with α-JNK antisera) remains unchanged. The histogram below depicts the mean±s.e. mean of three experimental replicates of the above western blot. Stimulation of BPH-1 cells with the same range of ligands (Panel b) yields a similar pattern of MAPK activation, but in this case p38α. […] The inset immunoblots depict an increasing phosphorylation of p38α with no increase in total p38α protein. The histograin below depicts the mean±s.e. mean of three experimental replicates of the above western blot.
as §2, with “myc-p38α. Panel a depicts a representative western blot of immunoprecipitated myc-JNK2 from JEG-3 cells stimulated with either GnRH I (100 nM) or Ant 135-25 (100 nM). The phosphorylation status of JNK was elevated by GnRH I and Ant135-25 with no significant alteration in total immunoprecipitated JNK levels (assessed by immunoblot with α-myc antisera).” for “myc-p38α.”
Thus it appears that the ability of the GnRH-induced stimulation of either JEG-3 or BPH-1 cells is not correlated to their anti-proliferative action. […] Using specific antisera against the kinase active form of ERK5 (or BMK) we observed no specific activation of this form of MAPK however using antisera specifically recognising the active forms of either c-Jun N-terminal kinase (JNK) or p38 MAPK we noted that in JEG-3 cells there was a potent, yet delayed GnRH-induced activation of JNK and a similarly slow inset activation of p38 in the BPH-1 cells. The level of activation of the endogenous stress-activated protein kinases (SAPKs) was relatively small but greater than the GnRH-activated ERK levels in these cells. To further investigate the validity of the observed SAPK activation we transfected the tumour cell lines with myc-tagged JNK2 or p38α MAPK isoforms, stimulated the cells with GnRH and then immunoprecipitated with anti-myc sera and western blotted the immunoprecipitates for total JNK/p38 protein and active JNK/p38. In FIG. 7 (panel a) GnRH causes a demonstrable, time-dependent and protracted activation of the immunoprecipitated JNK2. Activation of JNK2 typically only occurred after 30 minutes of GnRH I stimulation. […] As with the activation of the JNK in the JEG-3 cells there was a considerable delay in the onset of the p38 activation unlike the ERK signalling events that typically occur and peak within 20 minutes of GnRH ligand application (FIG. 7, panel b).

In assay [1] the test system is human JEG-3 choriocarcinoma cells. The assay can be described thus: Anti-proliferative effect on JEG-3 cells, viable cell count after 5 days. Format: cell-based. To be noted: 5 days continuous treatment, trypan blue exclusion. As for the experimental part: Low cell density JEG-3 cell subcultures were treated for 5 days continuously with the indicated doses of GnRH I (a), GnRH II (b), antagonist 135-18 (c) or antagonist 135-25 (d) added directly to Dulbecco's modified Eagles medium supplemented with 10% FCS, glutamine and penicillin/streptomycin. Ligands were replenished every 24 h. At the end of the stimulation period cells were removed from the growth plates with trypsin and mixed with trypan blue dye (enters non-viable cells). Only viable cells were therefore counted using a haemocytometer in quadruplicate for each ligand dose. The bars in each histogram represent the mean±s.e. mean of n=4 experiments.
Each cell type was plated at an initial minimal confluency (10-20%) to allow for 5 days of normal continual cell growth that would not result in 100% cell confluency by day 5. Each ligand was incubated, in triplicate for every experimental concentration, with the cell monolayers for five days with replacement of the ligand every 12 h. At the end of the stimulation period the number of viable cells was estimated by their capacity to prevent uptake of Trypan Blue stain.

“Also recorded” adds a separate entry of the source.

Four molecules from patent publication US7361633B2, “Screening method and anti-tumor drug candidate obtained therefrom” (Ardana Bioscience Limited, priority 2002, dated 2008) can be followed below.

As to `C[S+]([O-])c1ccc(-c2nc(-c3ccncc3)c(-c3ccc(F)cc3)[nH]2)cc1` (stereo not drawn) [SB203580], the “effect on GnRH-mediated activation of p38α” value with p38α is recorded as “significantly blunted the GnRH-mediated activation of p38α”. Moreover, the “effect on GnRH I activation of ERK1/2” value in the assay on ERK1/2 (20 μM SB203580, data not shown) is listed as “not significantly affecting the activation of ERK1/2 MAPKs”. For the same molecule, the “effect on GnRH I stimulation of JNK” value with JNK2 (20 μM SB203580, data not shown) is “effectively abrogates the ability of GnRH I to stimulate JNK”.

In the case of “Ac-D-Nal(2)-D-4-ClPhe-D-Pal-Ser-Ile-D-IsopropylLys-Leu-IsopropylLys-Pro-D -AlaNH2 [Ant 135-18]”, the “activation (phosphorylation) of myc-p38α” value in the assay with p38α is given as “does not”; in the assay on p38α (listed as Ant135-18), “dramatically lower efficacy than GnRH I or Ant 135-25”. Besides, the “anti-proliferative effect (viable cell number)” value (“anti-proliferative effect” for short) is “much lower potency and efficacy compared to 135-25, GnRH I and II” in assay [1]; “failed to demonstrate an anti-proliferative effect of a similar magnitude to that generated by GnRH I, GnRH II or Ant135-25” in assay [1] (listed as Ant135-18). The “extent of ERK1/2 phosphorylation (activation)” value (“extent” below) in the assay with ERK1/2 is on record as “least effective”; in the assay with ERK1/2 (listed as Ant135-18), “considerably less”. Besides, the “activation (phosphorylation) of myc-JNK2” value in the assay on JNK2 was “fails to efficiently activate JNK”; in the assay on JNK2 (listed as Ant135-18), “dramatically lower efficacy than GnRH I or Ant 135-25”.

Take “GnRH I: Gonadotropin-Releasing Hormone, a decapeptide; the original form of GnRH, re-named GnRH I”: in the assay with p38α, the “activation (phosphorylation) of myc-p38α” value is given as “significant activation of myc-p38α; also recorded: effectively activate p38α; also recorded: protracted activation of the immunoprecipitated myc-p38α” and the “effect of PTX pre-exposure on p38α activation” value is “acutely sensitive to the pre-exposure of PTX”. For the same molecule, the “anti-proliferative effect” value in assay [1] was “potent and dose-dependent anti-proliferative effect; also recorded: clear dose-response relationships for the inhibition of cellular growth”. Also, the “extent” value in the assay on ERK1/2 is given as “activate ERK1/2 to a similar extent”. In the assay on JNK2, the “time to onset of JNK2 activation” value was more than 30 min, the “activation (phosphorylation) of myc-JNK2” value was “significant activation of the immunoprecipitated myc-JNK2; also recorded: can efficiently activate the myc-JNK2 construct” and the “effect of PTX pre-incubation on JNK phosphorylation” value is given as “abolished with the PTX pre-incubation”.

As for “Ac-D-Nal(2)-D-4-ClPhe-D-Pal-Ser-1-MePal-D-IsopropylLys-Leu-IsopropylLys-Pro-D-AlaNH2 [Ant 135-25]”, in the assay with p38α, the “activation (phosphorylation) of myc-p38α” value is recorded as “effectively activate p38α” and the “effect of PTX pre-exposure on p38α activation” value is listed as “acutely sensitive to the pre-exposure of PTX”. Further, in assay [1], the “anti-proliferative effect” value is on record as “clear dose-response relationships for the inhibition of cellular growth”. Further, in the assay with ERK1/2, the “extent” value is reported as “activate ERK1/2 to a similar extent”. In the assay on JNK2, the “activation (phosphorylation) of myc-JNK2” value is “can efficiently activate the myc-JNK2 construct” and the “effect of PTX pre-incubation on JNK phosphorylation” value is recorded as “abolished with the PTX pre-incubation”.
